Common to all, as to type: in vivo
A short description of assay [1]: Body mass growth of C57B1 mice on high (45%) fat diet, 2 months. The following applies: for Body mass (grams): high fat diet. From the text:
(§1) The test substance was in the form of an aqueous solution of ultra-low doses of polyclonal rabbit antibodies to human cannabinoid receptor type 1 (ULD anti-CB1), purified on antigen, obtained by hyper-dilution of the initial matrix solution 100^12, 100^30, 100^200 times (mixture of centesimal homeopathic dilutions C12, C30, and C200).
33 male mice of the C57B1 line were used in the study (weight at the beginning of the study: 13.09±0.738 g). The mice received the modified diet with high (45%) fat content and simultaneously either distilled water (control, 0.2 ml/mouse) or Subutramine (10 mg/Kg) or ULD anti-CB1 (0.2 ml/mouse). All ULD anti-CB1 preparations were given intragastrically once a day in the course of 2 months. The mice weight was measured on Philips Cucina HR 239016 (Hungary) electronic scales until beginning to introduce the preparations (initially) and also each week after beginning to introduce them. The body mass growth of the mice was evaluated as a percentage of the initial weight.

A short description of assay [2]: Feed consumption and body mass growth of C57B1 mice on high calorie diet, 5 months.
Description: as §1
40 male mice of the C57B1 line were used in the study (weight at the beginning of the study: 13.5-15.5 g). 10 mice received the regular standard feed (standard diet); 30 mice received the standard feed with high calorie additives (high calories diet) and, simultaneously, either distilled water (control, 0.4 ml/mouse) or Subutramine (Meridia 10 mg capsules, Abbott GmbH, Germany) (10 mg/Kg) or ULD anti-CB1 (0.4 ml/mouse). All preparations were given intragastrically once a day in the course of 5 months. The mice consumption of feed was measured before test substances were introduced. The mice consumption of feed was also measured each week thereafter. The consumption of feed was evaluated as an average quantity of food (in grams), consumed by a mouse after 1 and 2 months of the study, and as an average quantity of feed per 10 g of mouse body mass.

Assay [3] can be described thus: Open field test, motor activity of mice given nicotine. The settings on record: nicotine 0.3 mg/kg s.c. over 4 days. From the text:
The effects of I) the combination of ultra-low doses of polyclonal rabbit antibodies to brain-specific protein S-100 (ULD anti-S100) and ultra-low doses of antibodies to cannabinoid receptor type 1 (ULD anti-CB1), each obtained by hyper-dilution of the initial matrix solution 100^12, 100^30, 100^200 times (mixture of centesimal homeopathic dilutions C12, C30, C200) (ULD anti-S100+ULD anti-CB1), ii) ULD anti-CB1 alone, and iii) ULD anti-S100 alone, on motor activity of mice were studied to evaluate their anti-nicotine properties.
40 white outbred male mice (22-25 g, 1.5 mo.) were used. 10 mice were intact. The rest of the mice were administered nicotine subcutaneously over 4 days at the dose of 0.3 mg/kg, Nicotine administration was preceded (1 hour prior) by intragastrical administration of either distilled water (control, 0.4 ml/mouse), or ULD anti-S100 (0.4 ml/mouse), or ULD anti-CB1 (0.4 ml/mouse), or ULD anti-S100+ULD anti-CB1 (0.4 ml/mouse). 30 minutes after the last administration of nicotine, an “open field” test was conducted. The animals were placed in the center of a TruScan photo-sensory installation (Coulbourn, USA), where the vertical and horizontal locomotor activity of the animals was automatically recorded in the course of two (2) minutes. The “open field” model makes it possible to evaluate the effect of the compounds on the locomotor activity of the animals (Gershenfield H. K., Neumann P. E., Mathis C., Crawley J. N., Li X., Paul S. M. Mapping quntative Trait Loci for Open-Field Behavior in Mice. Behavioral Genetics.—1997.—Vol. 27.—No 3.—p. 201-209, which is incorporated herein by reference in its entirety and for the purpose stated). The installation parameters: size 270×270×360 mm, divided into 64 squares, 2.5×2.5, with 25 mm openings situated in the platform floor, illumination of a 150 watt lamp.

For `CC(C)CC(N(C)C)C1(c2ccc(Cl)cc2)CCC1` (centres unmarked) [Subutramine], the “Body mass (grams)” value in assay [1] (week 0 (initial)) is recorded as 13.82 grams; in assay [1] (week 1), 13.45 grams; in assay [1] (week 2) it was 16.73 grams; in assay [1] (week 3) it was 19.82 grams; in assay [1] (week 4), 20.18 grams; in assay [1] (week 5), 20.91 grams. The “Body mass (grams)” value in assay [1] (week 6) was 22.36 grams; in assay [1] (week 7), 23.64 grams; in assay [1] (week 8), 22.91 grams. The “Δ to initial (body mass growth, percentage of initial weight)” value in assay [1] (week 1) is −2.6%; in assay [1] (week 2) it was 21.1%; in assay [1] (week 3) it was 43.4%; in assay [1] (week 4), 46.1%; in assay [1] (week 5), 51.3%; in assay [1] (week 6), 61.8%. Further, the “Δ to initial (body mass growth, percentage of initial weight)” value was found to be 71.1% in assay [1] (week 7) and 65.8% in assay [1] (week 8). Also, the “Consumption of feed (g per 10 g of body mass) per day” value in assay [2] (average over 5 months, M±m) is 1.28 ± 0.05 g per 10 g of body mass per da. Further, in assay [2] (average over 5 months, M±m), the “Consumption of feed (g/mouse) per day” value is recorded as 2.75 ± 1.36 g/mouse per day. Moreover, the “decrease of consumption of feed in reference to the control” value in assay [2] (intragastrically once a day, in a week) is recorded as 19.3%. Besides, in assay [2] (last twentieth week), the “lowered body mass in comparison with the control group” value is listed as 51.5%.

With `CN1CCCC1c1cccnc1` (centres unmarked) [nicotine], in assay [3], the “decrease of immobility time in comparison with the intact animals” value came to 13.5%, the “increase of activity time in comparison with the intact animals” value is listed as 8.2%, the “increase of distance traveled in comparison with the intact animals” value is reported as 5.1% and the “increase of quantity of openings investigated in comparison with the intact animals” value is recorded as 78.2%. Besides, the “increase of study reaction time in comparison with the intact animals” value in assay [3] was 76.9%.

The values are drawn from US8865163B2, “Pharmaceutical compositions and methods of treatment” (priority 2010, dated 2014).
